# Target: T1, Renin (Homo sapiens, UniProt P00797)
# T1 sequence (P00797 whole entry): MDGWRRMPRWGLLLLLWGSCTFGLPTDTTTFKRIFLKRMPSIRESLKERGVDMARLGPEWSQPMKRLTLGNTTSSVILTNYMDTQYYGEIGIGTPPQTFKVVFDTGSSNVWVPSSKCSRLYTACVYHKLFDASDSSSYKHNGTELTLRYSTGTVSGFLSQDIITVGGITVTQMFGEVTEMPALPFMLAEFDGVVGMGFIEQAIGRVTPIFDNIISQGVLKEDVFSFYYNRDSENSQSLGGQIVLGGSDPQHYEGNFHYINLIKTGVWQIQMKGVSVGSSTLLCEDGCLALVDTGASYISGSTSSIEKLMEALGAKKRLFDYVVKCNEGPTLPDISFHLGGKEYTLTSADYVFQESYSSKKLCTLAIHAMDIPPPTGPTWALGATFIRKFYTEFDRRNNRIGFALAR
# Experiment: In Vitro Renin IC50 Determinations (Tandem GFP FRET Assay)
# Conditions: pH 7.4; 22 °C
# Text: The renin assay utilized a tandem Green Flourescent Protein (tGFP) substrate that was hydrolyzed by human rennin. The tGFP substrate contained a nine amino acid (Ile-His-Pro-Phe-His-Leu-Val-Ile-His) recognition sequence for human renin flanked by two GPF proteins (W1B and Topaz). Human rennin cleaves the leucine-valine site of the substrate linker. Once cleaved, the emission ratio changes. The change was monitored by the ratio of 530 nm (topaz) over 475 nm (W1B) with the excitation set at 432 nm and the cutoff at 515 nm. The assay used a 384 well plate format that was read using a Gemini XS Fluorometric plate reader (Molecular Devices). Compounds were screened at a starting concentration of 10 uM and used a fourfold eleven-point dilution regiment.
row,IC50,SMILES
1,2280 nM,"COc1ccccc1COCCCOc1ccc([C@H]2CCNC[C@H]2NCc2ccc3[nH]ccc3c2)cc1 (mixture of isomers) [(3S,4R)-N-(1H-indol-5-ylmethyl)-4-(4-{3-[(2-methoxyphenyl)methoxy]propoxy}phenyl)piperidin-3-amine]"
2,73 nM,"COc1ccc2cc(CN[C@@H]3CNCC[C@@H]3c3ccc(OCCCOCc4ccccc4OC)cc3)ccc2c1 (mixture of isomers) [(3S,4R)-N-[(6-methoxynaphthalen-2-yl)methyl]-4-(4-{3-[(2-methoxyphenyl)methoxy]propoxy}phenyl)piperidin-3-amine]"
3,> 10000 nM,COc1ccccc1COCCCOc1ccc([C@H]2CCNC[C@H]2NC(=O)c2ccc3ccccc3c2)cc1 (mixture of isomers) [mixture of cis isomers]
4,> 10000 nM,COc1ccccc1COCCCOc1ccc([C@H]2CCNC[C@H]2NCc2ccc(-c3ccccc3)cc2)cc1 (mixture of isomers) [mixture of cis isomers]
5,175 nM,COc1ccccc1COCCCOc1ccc([C@H]2CCNC[C@H]2NCc2ccc3cccnc3c2)cc1 (mixture of isomers) [mixture of cis isomers]
6,393 nM,COc1ccccc1COCCCOc1ccc([C@H]2CCNC[C@H]2NCc2ccc3occc3c2)cc1 (mixture of isomers) [mixture of cis isomers]
7,61 nM,"COc1ccccc1COCCCOc1ccc([C@H]2CCNC[C@H]2NCc2ccc3ccccc3c2)cc1 [(3S,4R)-4-(4-{3-[(2-methoxyphenyl)methoxy]propoxy}phenyl)-N-(naphthalen-2-ylmethyl)piperidin-3-amine]"
8,255 nM,COc1ccccc1COCCCOc1ccc([C@H]2CCNC[C@H]2NCc2ccc3c(c2)NCCC3)cc1 [mixture of cis isomers]

# Source: BindingDB's records for doi:10.1016/j.bmc.2004.09.056 (Pfizer, 2005)
